Measurements as given in US20110189670A1, “Circulating Tumor and Tumor Stem Cell Detection Using Genomic Specific Probes” (priority 2008, published 2011).

Test system: peripheral blood lymphocytes
Test: Cytokinesis-block micronucleus (CBMN) assay, spontaneous and NNK-induced chromosomal damage (MN, NPBs, NBUDs)
Type: cell-based, human
Details: 0.24 mM NNK, 2 hours
Experimental: The CBMN test was performed using the cytochalasin B technique described by Fenech and Morley and following recommendations from The International Collaborative Project on Micronucleus Frequency in Human Populations (HUMN Project) (22) to measure MN, NPBs and NBUDs in untreated cells and NNK-treated cells. Duplicate lymphocyte cultures were prepared for each study subject. Each culture contained 2.0×10^6 cells in 5 mL RPM1 1640 medium supplemented with 100 U/mL penicillin, 100 μg/mL streptomycin, 10% fetal bovine serum, and 2 mM L-glutamine (Gibco-Invitrogen, Carlsbad, Calif.) and 1% phytohemagglutinin (Remel, Lenexa, Kans.). For the cultures treated with NNK, 24 hours after initiation, the PBLs were centrifuged and the supernatant growth medium was removed and reserved. The PBLs were resuspended in 5 mL of serum-free RPM1 1640 medium supplemented with 0.24 mM NNK (CAS No 64091-91-4, National Cancer Institute, Midwest Carcinogen Repository, Kansas City, Mo.) and incubated at 37° C. in the presence of 5% COz for 2 hours. Next, the PBLs were washed twice with serum-free RPM1 1640, transferred to clean tubes and re-incubated for 48 hours in the reserved supernatant At 44 hours after initiation, cells were blocked in cytokinesis by adding cytochalasin B (Sigma, St Louis, Mo.; final concentration 4 μg/mL). Similarly, cultures for the determination of spontaneous damage (untreated cells) were handled in the same manner, with the exception of treatment with NNK. The total incubation time for all cultures was 72 hours. After incubation, the cells were fixed in 3:1 methanol:glacial acetic acid, dropped onto clean microscopic slides, air-dried and stained with Giemsa stain. For each sample, 1000 binucleated cells were scored blindly using a Nikon E-400 light optical microscope following the scoring criteria outlined by HUMN Project (2,11,23); the numbers of MN, NPBs, and NBUDs per 1000 binucleated cells were recorded For quality control, 20% of the slides were randomly selected and blindly rescored and the results compared with the original scoring
Tobacco smoke carcinogens and individual susceptibility play key roles in determining risk of lung cancer. There are a variety of biomarkers evaluating susceptibility to the carcinogenic effects of benzo[a]pyrene; however, no assays specifically evaluate susceptibility to the nicotine-derived nitrosamine 4-(methylnitrosamino)-1-(3-pyridyl)-1-butanone (NNK), a potent inducer of lung adenocarcinoma. In this case-control study, the inventors modified the cytokinesis-block micronucleus (CBMN) assay, an established biomarker for DNA damage and genomic instability, to evaluate susceptibility to NNK by measuring the frequency of NNK-induced chromosomal damage endpoints (micronuclei [MN]; nucleoplasmic bridges [NPBs] and nuclear buds “BUDS]) per 1000 binucleated peripheral blood lymphocytes. […] Forty-seven percent of the cases (compared with 12% of the controls) had ≧4 spontaneous MN, 66% of the cases (and no controls) had ≧4 spontaneous NPBs, and 25% of cases (versus 5% of controls) had ≧1 spontaneous NBUDs (P<001). Similarly, 40% of the cases (versus 6% of the controls) had ≧5 NNK-induced MN, 89% of the cases (and no controls) had ≧6 induced NPBs, and 23% of the cases (vs 2% of the controls had 2 induced NBUDs (P<001). As continuous variables, spontaneous MN, NPBs and NBUDs were associated with 2-, 29-, and 6-fold increases in risk for cancer. Similarly, NNK-induced 2 3-, 45.5-, and 10-fold increases in risk for cancer. The inventors also evaluated the use of results from the CBMN assay to predict cancer risk based on the numbers of MN, NPBs, and NBUDs defined by percentile cut-points in control data. The probability of being a cancer patient were 96%, 98% and 100% when using the 95th percentiles of spontaneous and NNK-induced MN, NPBs and NBUDs, respectively, in combination. […]

## CN(CCCC(=O)c1cccnc1)N=O [NNK, 4-(methylnitrosamino)-1-(3-pyridyl)-1-butanone]
Lung cancer cases (139)
  subjects with 2 induced NBUDs per 1000 binucleated peripheral blood lymphocytes: 23%
  subjects with ≧5 NNK-induced MN per 1000 binucleated peripheral blood lymphocytes: 40%
  subjects with ≧6 induced NPBs per 1000 binucleated peripheral blood lymphocytes: 89%
Matched controls (130)
  subjects with 2 induced NBUDs per 1000 binucleated peripheral blood lymphocytes: 2%
  subjects with ≧5 NNK-induced MN per 1000 binucleated peripheral blood lymphocytes: 6%
  subjects with ≧6 induced NPBs per 1000 binucleated peripheral blood lymphocytes: no controls
